Assay results: publication PMC7516806, “Hybrid Antimicrobial Peptide Targeting Staphylococcus aureus and Displaying Anti-infective Activity in a Murine Model” (Frontiers in Microbiology, 2020)
≈ marks a conversion by molar mass, not a printed value. Positions of bridges follow the written chain, without caps; N, C: chain ends. Residues, ends and D or L forms follow the SMILES beside them.

Columns and labels:
[1] = system: S. aureus 29213; experiment: MIC in the presence of physiological salts; format: cell-based, Staphylococcus aureus; details: three independent repeats, unit not given in Table 4
Experimental: (§1) The experiment was repeated at least three times independently.
The MIC of peptides was determined in the presence of salts at physiological concentrations (150 mM NaCl, 4.5 mM KCl, 6 μM NH4Cl, 8 μM ZnCl2, 1 mM MgCl2, 2 mM CaCl2, and 4 μM FeCl3) as described previously ([Dong et al., 2014]). All experiments were performed three times independently.

[2] = system: S. aureus 29213; experiment: Histology (HE) of infected skin tissue; format: in vivo, ICR mice; details: 24 h after injection of S. aureus
Experimental: To assess the antimicrobial activity of the peptide in vivo, a mouse model of subcutaneous infection was used ([Huang et al., 2011a]; [Omolo et al., 2017]). Female Institute for Cancer Research (ICR) mice (SPF, 20–25 g) were purchased from WeiTonglihua Co., Ltd. (Beijing, China), with eight animals per group. The mice were shaved on their backs and disinfected. S. aureus 29213 (100 μL) at a concentration of 1 × 10^8 CFU/mL was injected into the superficial skin of the mice. The mice were divided into four groups (n = 4), as follows: S. aureus + saline, S. aureus + S2 (80× MIC, 100 μL), S. aureus + vancomycin (Van) (80× MIC, 100 μL), and saline. S2, vancomycin, and saline were injected at the same site 1 h after infection. The mice were monitored over 24 h in an environmentally controlled room at 25 ± 1°C and 55 ± 5% relative humidity with a 12 h light/dark cycle.
To image the infected skin tissues, the mice were euthanized 24 h after the injection of S. aureus. Samples were fixed in 4% buffered paraformaldehyde and subjected to hematoxylin/eosin (HE) staining. The antimicrobial activity in vivo was determined by colony counting of infected skin samples. Skin homogenates were serially diluted in saline and incubated at 37°C for 24 h.

[3] = system: S. aureus ATCC 29213; experiment: Time-dependent killing kinetics; format: cell-based, Staphylococcus aureus; details: six independent trials
Experimental: The logarithmic phase S. aureus ATCC 29213 cells were harvested by centrifugation at 1000 × g for 5 min, washed twice with PBS, and diluted to 2–7 × 10^5 CFU/mL. S. aureus was treated with AMPs at various concentrations, including 0.125, 0.25, 0.5, 1, and 2 × MIC. At various time intervals (5 s, 10 s, 30 s, 1 min, 5 min, 10 min, and 30 min), 50 μL of bacterial solution was diluted and plated on MHA plates. Bacterial colonies were counted after 24 h of incubation at 37°C. The results were carried out in six independent trials.

[4] = system: P. aeruginosa 27853; experiment: MIC, modified microtiter dilution; format: cell-based, Pseudomonas aeruginosa; details: MHB, 2–7 × 10^5 CFU/ml, 37°C, 24 h, no turbidity, at least three independent repeats
From the text: as §1

[5] = system: MRSA 43300; format: cell-based, Staphylococcus aureus; details: MHB, 2–7 × 10^5 CFU/ml, 37°C, 24 h, no turbidity, at least three independent repeats
From the text: as §1

[6] = system: S. aureus ATCC 29213; experiment: SEM and TEM characterization of membrane damage; format: cell-based, Staphylococcus aureus
Experimental: Bacterial membrane damage induced by the peptide was visualized using scanning electron microscopy (SEM). S. aureus ATCC 29213 was washed three times using PBS after growing to the mid-log phase and diluted to an OD600 = 0.2. The bacteria were incubated for 30 min with peptide, and the bacterial growth in PBS was used as the control. The cells were washed twice with PBS and fixed with 2.5% (w/v) glutaraldehyde at 4°C overnight. The bacterial cells were dehydrated with a graded series of ethanol (50, 70, 90, and 100%) for 10 min at each step. The samples were transferred to a mixture (v: v = 1:1) of alcohol and tert-butanol for 30 min and tert-butanol alone for 1 h. The dried bacterial specimens, which were obtained using a critical point dryer, were coated and visualized under a field emission scanning electron microscope (Hitachi S-4800, Japan).
The processing method of the samples for transmission electron microscopy (TEM) was the same as the treatment for SEM. The samples were then prefixed with 2.5% glutaraldehyde at 4°C overnight, post-fixed with osmium tetroxide for 70 min, and washed twice with PBS (pH 7.2). Subsequently, the samples were dehydrated in different concentrations of ethanol (50, 70, and 90%) for 8 min in series and 10 min in 100% ethanol twice and then transferred to a mixture (v:v = 1:1) of 100% ethanol and acetone for 10 min. […]

[7] = system: S. aureus 25923; experiment: MIC, modified microtiter dilution; format: cell-based, Staphylococcus aureus; details: MHB, 2–7 × 10^5 CFU/ml, 37°C, 24 h, no turbidity, at least three independent repeats
From the text: as §1

[8] = system: S. aureus 29213; experiment: MIC, modified microtiter dilution; format: cell-based, Staphylococcus aureus; details: MHB, 2–7 × 10^5 CFU/ml, 37°C, 24 h, no turbidity, at least three independent repeats
From the text: as §1

CC(C)C[C@H](NC(=O)[C@H](CC(C)C)NC(=O)[C@H](Cc1c[nH]c2ccccc12)NC(=O)[C@H](Cc1c[nH]c2ccccc12)NC(=O)[C@H](Cc1c[nH]c2ccccc12)NC(=O)[C@H](CCCNC(=N)N)NC(=O)[C@@H]1CSSC[C@H](N)C(=O)N[C@@H](C)C(=O)N[C@@H](CO)C(=O)N[C@@H](Cc2ccc(O)cc2)C(=O)N[C@@H](Cc2ccccc2)C(=O)N1)C(N)=O [Peptide S2] (H-CASYFCRWWWLL-NH2; disulfide 1-6; N-terminus assumed)
MIC against S. aureus 29213, FeCl3 ([1]; 4 μM FeCl3): 16 µM
MIC against S. aureus 29213, NH4Cl ([1]; 6 μM NH4Cl): 8 µM
MIC against S. aureus 29213, ZnCl2 ([1]; 8 μM ZnCl2): 4 µM
MIC against S. aureus 29213, MgCl2 ([1]; 1 mM MgCl2): 8 µM
MIC against S. aureus 29213, CaCl2 ([1]; 2 mM CaCl2): 16 µM
MIC against S. aureus 29213, KCl ([1]; 4.5 mM KCl): 8 µM
MIC against S. aureus 29213, NaCl ([1]; 150 mM NaCl): 8 µM
histomorphological changes of skin tissue (HE) [2]: good recovery
bacterial reduction in S. aureus ([3]; 0.5 × MIC, after 5 s of exposure, PBS, 2–7 × 10^5 CFU/mL): 2 log10
time of peptide exposure for 100% bacterial killing ([3]; at 2 × MIC): 30 s
time of peptide exposure for 100% bacterial killing ([3]; at MIC): 60 s
MIC P. aeruginosa 27853 [4]: >64 µM
MIC MRSA 43300 [5]: 8 µM (≈ 13 µg/mL)
morphology and membrane integrity by SEM ([6]; at its MIC for 30 min): wrinkles, disrupted membrane integrity, and leakage of cell contents
morphology and internal structure by TEM ([6]; treatment for 30 min): the membrane of S. aureus was damaged, and a substantial outflow of cytoplasm was observed
MIC S. aureus 25923 [7]: 8 µM (≈ 13 µg/mL)
MIC S. aureus 29213 [8]: 8 µM (≈ 13 µg/mL)
